Two substances from patent EP4707393A1, “DOUBLE-STRANDED SIRNA, CONJUGATE THEREOF AND USE THEREOF” (CMS Research & Development Pte. Ltd., priority 2023, dated 2024) can be followed below.

One data set relates to LPA mRNA. In words: In vivo efficacy in LPA-HDI mouse model (liver LPA mRNA). Details: species or system BALB/c mouse. To be noted: 3 mg/kg single subcutaneous injection, Day 14, relative to PBS blank group, 4 mice per group. The method, then: The knockdown effect of the test double-stranded siRNA conjugate on the target gene LPA upon entry into the mouse is evaluated by rapid high-pressure injection of the physiological saline containing recombinant plasmid pcDNA-LPA carrying the target gene via the tail vein.
pcDNA-LPA plasmid, BALB/c mouse, PBS (phosphate buffer), and conjugates of the present invention.
Six-week-old female BALB/c mice were ordered and acclimated/quarantined for three days upon arrival in the animal room.
On Day 0, the mice were randomly grouped based on body weight data. After grouping, all mice were given a single administration via subcutaneous injection, with a dose volume of 10 mL/kg. Mice in Group 1 received PBS; mice in the other groups received the conjugates (dissolved in PBS).
On Day 13 post-administration, all mice were injected with normal saline containing the pcDNA-LPA plasmid via the tail vein within 5 seconds. The injection volume (mL) = mouse body weight (g) × 8%. The amount of plasmid injected per mouse was 10 µg.
On Day 14 post-administration, all groups of mice were euthanized by CO2 inhalation, and 2 liver samples were collected from each mouse. Liver samples were treated overnight with RNAlater at 4 °C, then RNAlater was removed, and stored at -80 °C for detection of LPA gene expression levels.

Data set [1] deals with human LPA gene (Genbank number: NM_005577.4). In words: Inhibitory activity against LPA mRNA, psiCHECK-2 dual-luciferase reporter vector in Huh7 cells. The format is cell-based. The note with it: Huh7 cells transfected with LPA_psiCHECK-2 plasmid, RNAiMAX transfection. The procedure, abridged:
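Huh7 cells transfected with psiCHECK-2 carrying human LPA, then treated next day with compounds (3 concentrations) delivered by RNAiMAX. Dual-Glo readout of firefly and Renilla luciferase per well. Percent inhibition calculated from the reporter ratio relative to the RNAiMAX control.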
A general note: Reporter assays use an easily measured gene product as a stand-in for the process of interest.

Consider “Z46: siRNA conjugate: sense SEQ ID NO:43, ligand D01 at 3' end of sense strand, antisense SEQ ID NO:66 (sense CAGCCCCTTATTGTTANACGA; antisense TCTCGTATNACAATAAGGGGCTG; ligand D01 at sense 3' end; listed as RNA; modified_base 1: mod_base = OTHER; note = 2'-O-methylcytidine; modified_base 2: mod_base = OTHER; note = 2'-O-methyladenosine; modified_base 3: mod_base = OTHER; note = 2'-O-methylguanosine; modified_base 4..7: mod_base = OTHER; note = 2'-O-me; note = 2'-O-methyluridine; modified_base 4: mod_base = OTHER; note = 2'-fluorocytidine; modified_base 5: mod_base = OTHER; note = 2'-O-methylg)”, for which the “% Downregulation of LPA mRNA” value in the data set with LPA mRNA turned out to be 89.0%. In addition, in data set [1], the EC50 (in general, the concentration needed to bring the measured effect to its halfway point) was 0.31 nM.
In the case of “Z42: siRNA conjugate: sense SEQ ID NO:49, ligand D01 at 3' end of sense strand, antisense SEQ ID NO:80 (sense CAGCCCCTTATTGTTATACGA; antisense NCGTATNACAATAAGGGGCNGTT; ligand D01 at sense 3' end; listed as RNA; modified_base 1: mod_base = OTHER; note = 2'-O-methylcytidine; modified_base 2: mod_base = OTHER; note = 2'-O-methyladenosine; modified_base 3: mod_base = OTHER; note = 2'-O-methylguanosine; modified_base 4..7: mod_base = OTHER; note = 2'-O-me; note = n is B33; note = 2'-deoxycytidine; modified_base 4: mod_base = OTHER; note = 2'-O-methyluridine; m)”, the “% Downregulation of LPA mRNA” value in the data set on LPA mRNA worked out at 78.0%. Besides, the EC50 in data set [1] came to 0.31 nM.
